Reference: article PMC9979163, “Discovery and functional characterization of N-(thiazol-2-yl)-benzamide analogs as the first class of selective antagonists of the Zinc-Activated Channel (ZAC)” (Biochemical pharmacology, 2021)

Experiments:
ZAC [1] = biological target: T1, ZAC (Homo sapiens, UniProt Q401N2); assay: TEVC recordings, spontaneous ZAC activity in Xenopus oocytes; assay type: cell-based; conditions: for IC50: block of spontaneous ZAC activity (leak current), TEVC
T1 sequence (Q401N2 26-412): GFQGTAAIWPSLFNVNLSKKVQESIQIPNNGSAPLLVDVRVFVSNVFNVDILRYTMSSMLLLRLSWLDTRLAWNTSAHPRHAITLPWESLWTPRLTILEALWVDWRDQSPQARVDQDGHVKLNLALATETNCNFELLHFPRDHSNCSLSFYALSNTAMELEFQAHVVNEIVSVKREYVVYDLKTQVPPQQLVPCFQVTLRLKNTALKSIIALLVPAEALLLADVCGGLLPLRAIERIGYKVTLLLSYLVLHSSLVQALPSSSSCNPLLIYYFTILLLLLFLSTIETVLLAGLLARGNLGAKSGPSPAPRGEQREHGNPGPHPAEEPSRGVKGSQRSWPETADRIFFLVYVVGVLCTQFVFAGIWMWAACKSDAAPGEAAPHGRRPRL
Method: (§1) The cDNAs for the various WT and chimeric CLR subunits were linearized and subsequently transcribed and capped mMessage mMachine T7 RNA transcription kit (Ambion, Waltham, MA). Different amounts of cRNA mixtures were injected for ZAC (9.2–36.8 nL in a concentration of 0.05 μg/μL), […] nAChR (9.2–36.8 nL in a concentration of 0.1 μg/μL of each subunit in a ratio of 1:1), hα1 GlyR (9.2–36.8 nL in a concentration of 0.05 μg/μL), hα1β2γ2s GABAAR (9.2–36.8 nL in a concentration of 0.05 μg/μL of each subunit in a ratio of 1:1:3), m5-HT3AR (9.2–36.8 nL in a concentration of 0.05 μg/μL), m5-HT3A/ZAC (9.2–36.8 nL in a concentration of 0.207 μg/μL), and ZAC/hai-Gly (9.2–36.8 nL in a concentration of 0.206 μg/μL). Oocytes were incubated in a sterile modified Barth’s solution [88 mM NaCl, 1 mM KCl, 15 mM HEPES (pH 7.5), 2.4 mM NaHCO3, 0.41 mM CaCl2, 0.82 mM MgSO4, 0.3 mM Ca(NO3)2, 100 U/ml penicillin and 100 μg/ml strep-tomycin] at 18 °C for 2 days after injection.
(§2) On the day of experiment, all compound dilutions were prepared in a saline solution [115 mM NaCl, 2.5 mM KCl, 10 mM MOPS (pH 7.5), 1.8 mM CaCl2, 0.1 mM MgCl2] and pH adjusted to 7.5 (if needed). Oocytes were placed in a recording chamber continuously perfused with this saline solution, and the compounds were applied in the perfusate. Both voltage and current electrodes were agar-plugged with 3 M KCl with a resistance of 0.2–2.0 MΩ. Oocytes were voltage-clamped at −50 mV (unless otherwise stated) by a Gene Clamp 500B amplifier (Axon Instruments, Union City, CA), while current signals were digitized by a Digidata 1320. Currents were recorded using pCLAMP 10 (Molecular Devices, Sunnyvale, CA). The recordings were performed at room temperature.
In all recordings, the compounds or compound combinations were applied in the bath until the peak current decayed to a steady state (up to 30 sec at the most). […] The functional properties of the modulators at the CLRs were determined by pre-application of the modulator to the perfusate 30 sec and followed by co-application of the modulator and the agonist to the perfusate. In all recordings, washes of 1–5 min were executed between the applications to prevent receptor desensitization, the duration of these washes depending on the kinetics of the respective receptors and the “stickyness” of the respective compounds. […]
(§3) Data analysis of the results from the TEVC recordings were performed using Clampfit software version 10.5 (Molecular Devices, Crawley, UK) and GraphPad Prism version 7.0c (GraphPad Software, Inc. La Jolla, CA). […] I-V relationships were analyzed by fitting the curves with a third order polynomial model. […]

ZAC [2] = biological target: T1, ZAC; assay: TEVC recordings, Zn2+-evoked currents at ZAC expressed in Xenopus oocytes; assay type: cell-based; conditions: for Antagonist activity at ZAC in SAR study (in words): tested at three concentrations (0.3-3-30 μM or 1-10-100 μM); for IC50: steady-state current, read-out: pIC50 ± S.E.M. (converted)
Method: as §1, §2
In all recordings, the compounds or compound combinations were applied in the bath until the peak current decayed to a steady state (up to 30 sec at the most). […] The functional properties of the modulators at the CLRs were determined by pre-application of the modulator to the perfusate 30 sec and followed by co-application of the modulator and the agonist to the perfusate. In all recordings, washes of 1–5 min were executed between the applications to prevent receptor desensitization, the duration of these washes depending on the kinetics of the respective receptors and the “stickyness” of the respective compounds. […] For the selectivity and mode-of-action studies, the agonist concentrations used for different CLRs or chimeric CLRs were in the EC20–EC40 range (verified on the day of experiment), as this enabled us to investigate both for putative positive and negative receptor modulation exerted by TTFB (hα3β4 nAChR, 3 μM (S)-nicotine; m5-HT3AR, 2 μM 5-HT; hα1 GlyR, 100 μM glycine; hα1β2γ2S GABAAR, 30 μM GABA; m5-HT3A/ZAC, 0.3 μM 5-HT; ZAC/hɑ1-Gly, 2 μM Zn^2+).
Data analysis of the results from the TEVC recordings were performed using Clampfit software version 10.5 (Molecular Devices, Crawley, UK) and GraphPad Prism version 7.0c (GraphPad Software, Inc. La Jolla, CA). Data for the test compounds were normalized to either the maximal agonist-evoked current or to an EC20–EC50-mediated response elicited by the agonist on each oocyte (specified in each case). Unless otherwise stated, data for agonist-induced responses in the presence of the antagonists were extracted from the plateau (or steady-state) of the agonist-evoked current. Concentration-response and concentration-inhibition curves were fitted in GraphPad Prism by nonlinear regression using the equation for sigmoidal dose-response with variable slope. I-V relationships were analyzed by fitting the curves with a third order polynomial model. Each data point represents the mean ± S.E.M. value of recordings performed on at least five oocytes from at least two different batches.

hα1 GlyR = biological target: T2, hα1 GlyR (Homo sapiens, UniProt P23415); assay: TEVC selectivity, hα1 GlyR in oocytes; assay type: cell-based; conditions: 30 μM, 30 s preapplication, 100 μM glycine (EC20–EC40)
T2 sequence (P23415 29-457): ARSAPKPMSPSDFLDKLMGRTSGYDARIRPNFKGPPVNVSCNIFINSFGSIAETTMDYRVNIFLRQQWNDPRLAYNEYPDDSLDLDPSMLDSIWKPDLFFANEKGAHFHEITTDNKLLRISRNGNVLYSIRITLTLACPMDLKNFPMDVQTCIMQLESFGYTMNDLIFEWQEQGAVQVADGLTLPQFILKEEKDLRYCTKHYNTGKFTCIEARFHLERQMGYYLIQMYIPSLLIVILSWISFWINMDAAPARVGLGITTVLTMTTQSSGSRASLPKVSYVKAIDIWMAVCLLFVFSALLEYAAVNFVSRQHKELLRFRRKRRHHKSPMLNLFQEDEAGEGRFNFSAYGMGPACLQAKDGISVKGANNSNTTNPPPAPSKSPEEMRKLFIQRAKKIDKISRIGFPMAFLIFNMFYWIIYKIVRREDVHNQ
Method: (§4) The cDNAs for the various WT and chimeric CLR subunits were linearized and subsequently transcribed and capped mMessage mMachine T7 RNA transcription kit (Ambion, Waltham, MA). […]
(§5) On the day of experiment, all compound dilutions were prepared in a saline solution [115 mM NaCl, 2.5 mM KCl, 10 mM MOPS (pH 7.5), 1.8 mM CaCl2, 0.1 mM MgCl2] and pH adjusted to 7.5 (if needed). […] Currents were recorded using pCLAMP 10 (Molecular Devices, Sunnyvale, CA). […]
(§6) In all recordings, the compounds or compound combinations were applied in the bath until the peak current decayed to a steady state (up to 30 sec at the most). […] The functional properties of the modulators at the CLRs were determined by pre-application of the modulator to the perfusate 30 sec and followed by co-application of the modulator and the agonist to the perfusate. […]
as §3

m5-HT3A/ZAC = assay: TEVC, chimeric m5-HT3A/ZAC receptor in oocytes; assay type: cell-based, mouse/human; conditions: 30 μM, 0.3 μM 5-HT
Method: as §4, §5, §6, §3

rα3β4-nAChR = biological target: T3, rα3β4-nAChR (Rattus norvegicus, UniProt P04757+P12392); assay: FMP assay at rα3β4-nAChR-HEK293 cells ((S)-nicotine-induced response); assay type: cell-based; conditions: concentrations up to 100 μM, data not shown
T3 construct: expressed in transfected cells
T3 sequence (P04757 26-499): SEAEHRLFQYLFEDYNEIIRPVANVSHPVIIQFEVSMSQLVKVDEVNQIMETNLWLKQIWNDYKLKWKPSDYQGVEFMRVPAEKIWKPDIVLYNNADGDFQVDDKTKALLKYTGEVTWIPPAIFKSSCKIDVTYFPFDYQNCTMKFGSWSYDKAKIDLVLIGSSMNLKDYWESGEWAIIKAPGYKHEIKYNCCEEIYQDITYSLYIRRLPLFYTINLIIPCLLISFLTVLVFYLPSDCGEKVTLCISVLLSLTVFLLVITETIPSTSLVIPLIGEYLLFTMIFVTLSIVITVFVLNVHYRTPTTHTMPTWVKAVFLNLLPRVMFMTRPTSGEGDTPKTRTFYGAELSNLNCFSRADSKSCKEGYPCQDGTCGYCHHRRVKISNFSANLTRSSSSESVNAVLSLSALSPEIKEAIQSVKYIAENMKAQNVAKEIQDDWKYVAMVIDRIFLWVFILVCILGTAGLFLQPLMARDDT
T3 sequence (P12392 22-495 limits assumed): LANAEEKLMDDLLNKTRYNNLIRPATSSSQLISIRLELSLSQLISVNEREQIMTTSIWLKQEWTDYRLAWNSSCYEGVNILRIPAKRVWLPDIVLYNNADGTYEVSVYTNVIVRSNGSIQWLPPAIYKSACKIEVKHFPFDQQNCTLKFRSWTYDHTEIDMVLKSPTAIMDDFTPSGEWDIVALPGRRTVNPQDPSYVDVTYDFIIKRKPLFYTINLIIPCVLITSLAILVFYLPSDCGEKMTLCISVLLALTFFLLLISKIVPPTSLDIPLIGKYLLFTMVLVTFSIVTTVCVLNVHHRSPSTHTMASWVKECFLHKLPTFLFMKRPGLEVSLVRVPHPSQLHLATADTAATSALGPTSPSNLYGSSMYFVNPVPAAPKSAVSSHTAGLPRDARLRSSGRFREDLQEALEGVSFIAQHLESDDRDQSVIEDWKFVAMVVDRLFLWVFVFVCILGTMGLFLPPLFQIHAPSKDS

CC(C)(C)c1csc(NC(=O)c2cccc(F)c2)n1 [5a, N-(4-(tert-butyl)thiazol-2-yl)-3-fluorobenzamide]
Equilibrium potential (ZAC [1]; TTFB (100 μM)-induced currents, holding potentials −60 mV to +60 mV): −11.5 mV
IC50 (ZAC [1]; read-out: IC50): 4.7 µM
IC50 (ZAC [1]; read-out: pIC50 ± S.E.M. (converted)): 4.79 µM
Inhibition of ZAC at 10 μM (in words) (ZAC [2]; 10 μM compound, 1 mM Zn2+ as agonist): almost complete inhibition
Antagonist activity at ZAC in SAR study (in words) (ZAC [2]; 1 mM Zn2+ as agonist): roughly equipotent with 2b
Fitted inhibition range, Inhibition (%) (ZAC [2]; Zn2+ (1 mM) as agonist, TEVC): 91 ± 3%
Hill coefficient nH ± S.E.M. (ZAC [2]; Zn2+ (1 mM) as agonist, TEVC): −1.5 ± 0.08
IC50 (ZAC [2]; Zn2+ (1 mM) as agonist, TEVC): 3.02 µM
Extent of inhibition of Zn2+-induced responses (in words) (ZAC [2]; Zn2+ (1 mM), full concentration-inhibition curves): completely
Agonist, antagonist or PAM activity (hα1 GlyR): did not display significant activity
Modulation of 5-HT-induced response (m5-HT3A/ZAC): complete inhibition

COC(=O)c1sc(NC(=O)c2cc(Br)ccc2Cl)nc1C [compound 1, 2-(5-bromo-2-chlorobenzamido)-4-methylthiazole-5-methyl ester]
IC50 (ZAC [1]; read-out: IC50): 7.4 µM
Effect on (S)-nicotine-induced response (rα3β4-nAChR): did not affect
Antagonist activity at ZAC in SAR study (in words) (ZAC [2]; 1 mM Zn2+ as agonist): weaker antagonists
Hill coefficient nH ± S.E.M. (ZAC [2]; Zn2+ (1 mM) as agonist, TEVC): −1.3 ± 0.13
IC50 (ZAC [2]; Zn2+ (1 mM) as agonist, TEVC): 4.07 µM
Mode of antagonism (ZAC [2]; Zn2+ concentration-response curves in absence and presence of various concentrations of the compound): largely non-competitive
